We go through 4 compounds from patent US11572350B1, “Benzothia(di)azepine compounds and their use as bile acid modulators” (Albireo AB, priority 2020, dated 2023).

One data set addresses T1, human IBAT (Homo sapiens, UniProt Q12908).
T1 construct: expressed in transfected cells; kept under Puromycin selection
T1 sequence (Q12908 1-348): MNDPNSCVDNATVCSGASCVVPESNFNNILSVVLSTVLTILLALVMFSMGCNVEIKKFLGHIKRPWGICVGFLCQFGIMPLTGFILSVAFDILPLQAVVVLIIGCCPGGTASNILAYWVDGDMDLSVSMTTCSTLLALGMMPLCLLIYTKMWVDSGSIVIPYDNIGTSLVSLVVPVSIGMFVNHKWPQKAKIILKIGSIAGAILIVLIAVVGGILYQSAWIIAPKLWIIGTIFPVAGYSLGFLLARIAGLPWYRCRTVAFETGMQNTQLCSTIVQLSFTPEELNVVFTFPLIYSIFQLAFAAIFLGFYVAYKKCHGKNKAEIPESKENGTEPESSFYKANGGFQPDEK
Nature of the data set: IBAT (h/m) assay: 3H-taurocholic acid uptake in human IBAT-overexpressing cells. The data set is classed as cell-based. The following applies: 0.25 μM 3H-taurocholic acid and 5 μM cold taurocholic acid, 20 minutes, highest test concentration 10 μM, read-out: hIBAT IC50. On the procedure:
IBAT (h/m) Assay Protocol
10,000 cells (Human or Mouse IBAT-overexpressing cells) were seeded in 96-wells plate (Corning CLS3809) in 200 μL MEM-alpha medium (Gibco 12571-063) supplemented with 10% FBS (Gibco 10438026) containing Puromycin (Gibco A1113803) (10 μg/mL) and incubated at 37° C. in 5% CO2 for 48 hours. After incubation, media was decanted from the wells and cells were washed two times with 300 μL of basal MEM-alpha medium (FBS-free). After decanting basal MEM-alpha medium each time, plates were tapped against paper towel to ensure maximum removal of residual media. Test inhibitor dilutions (highest test concentration being 10 μM, 3-fold serial dilution, 10 points) prepared in DMSO (Sigma D2650) were added in incubation mix (maintaining 0.2% final DMSO concentration) containing 0.25 μM 3H-taurocholic acid (ARC ART-1368) and 5 μM of cold taurocholic acid (Sigma T4009). 50 μL of incubation mix containing test inhibitors was then added to the wells (in duplicate) and the plates were incubated for 20 minutes in a CO2 incubator at 37° C. After incubation, the reaction was stopped by keeping the plates on ice water mix for 2-3 minutes and then the incubation mix was aspirated completely from the wells. The wells were washed two times with 250 μL of chilled unlabelled 1 mM taurocholic acid dissolved in HEPES (Gibco 15630080)-buffered (10 mM) HBSS (Gibco 14175079) (pH 7.4). The plates were tapped against a paper towel after every wash to ensure maximum removal of blocking buffer.
100 μL of MicroScint-20 (PerkinElmer 6013621) was added to the wells and kept overnight at room temperature before reading the plates in TopCount NXT™ Microplate Scintillation and Luminescence Counter from PerkinElmer under 3H Test protocol (set at 120 seconds reading time per well).
(§1) Preparation of Test Compound Dilutions
(§2) All test compounds were provided in powder form at room temperature. 10 mM DMSO stocks of the test compounds were prepared, aliquoted and stored at −20° C. From the 10 mM DMSO stock of the compounds, a 3-fold serial dilution in DMSO was prepared to get a total of 10 dilutions of the test compounds. 0.5 μL of this dilution in DMSO was added to 250 μL of FBS-free basal media containing 3H-taurocholic acid and cold taurocholic acid to prepare the incubation mixture.

A further data set concerns the target T2, human LBAT (Homo sapiens, UniProt Q14973).
T2 construct: expressed in transfected cells; kept under Geneticin selection
T2 sequence (Q14973 1-349): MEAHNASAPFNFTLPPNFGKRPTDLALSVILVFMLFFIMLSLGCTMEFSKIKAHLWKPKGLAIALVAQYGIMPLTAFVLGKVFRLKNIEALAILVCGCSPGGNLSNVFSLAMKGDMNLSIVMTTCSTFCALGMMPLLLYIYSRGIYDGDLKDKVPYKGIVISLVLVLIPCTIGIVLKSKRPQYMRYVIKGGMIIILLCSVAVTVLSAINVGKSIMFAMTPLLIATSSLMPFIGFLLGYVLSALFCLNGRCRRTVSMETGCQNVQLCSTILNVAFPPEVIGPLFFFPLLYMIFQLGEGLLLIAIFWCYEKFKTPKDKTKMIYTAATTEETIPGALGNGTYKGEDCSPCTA
As to the kind of experiment: LBAT (h/m) assay: 3H-taurocholic acid uptake in human LBAT-overexpressing cells. Format: cell-based. The following applies: 0.3 μM 3H-taurocholic acid and 7.5 μM cold taurocholic acid, 20 minutes, read-out: hLBAT IC50. On the procedure: LBAT (h/m) Assay Protocol
20,000 cells (Human or Mouse LBAT-overexpressing cells) were seeded in 96-wells plate (Corning CLS3809) in 100 μL MEM-alpha medium (Gibco 12571-063) supplemented with 10% FBS (Gibco 10438026) containing Geneticin (Gibco 10131-027) (1 mg/mL) and incubated at 37° C. in 5% CO2 for 24 hours. After incubation, media was decanted from the wells and cells were washed two times with 300 μL of basal MEM-alpha medium (FBS-free). After decanting basal MEM-alpha medium each time, plates were tapped against paper towel to ensure maximum removal of residual media. For human LBAT, incubation mix was prepared by adding test inhibitor dilutions (3-fold serial dilution in DMSO (Sigma D2650), 10 points) in MEM-alpha (without FBS) containing 0.3 μM 3H-taurocholic acid (ARC ART-1368) and 7.5 μM cold taurocholic acid (Sigma T4009) (maintaining 0.2% final DMSO concentration). For mouse LBAT, incubation mix was prepared by adding test inhibitor dilutions (3-fold serial dilution in DMSO, 10 points) in MEM-alpha (without FBS) containing 0.3 μM 3H-taurocholic acid and 25 μM cold taurocholic acid maintaining 0.2% final DMSO concentration). 50 μL of incubation mix containing test inhibitors was then added to the wells (in duplicate) and the plates were incubated for 20 minutes in a CO2 incubator at 37° C. After incubation, the reaction was stopped by keeping the plates on ice water mix for 2-3 minutes and then the incubation mix was aspirated completely from the wells. The wells were washed two times with 250 μL of chilled unlabelled 1 mM taurocholic acid dissolved in HEPES (Gibco 15630080)-buffered (10 mM) HBSS (Gibco 14175079) (pH 7.4). The plates were tapped against a paper towel after every wash to ensure maximum removal of blocking buffer.
100 μL of MicroScint-20 (PerkinElmer 6013621) was added to the wells and kept overnight at room temperature before reading the plates in TopCount NXT™ Microplate Scintillation and Luminescence Counter from PerkinElmer under 3H Test protocol (set at 120 seconds reading time per well, with normal plate orientation).
as §1, §2

The test system of the next data set is OATP KO mice. Nature of the data set: Effect of LBAT selective compounds on serum bile acid levels in OATP KO mice. Format: in vivo. As to conditions: male OATP KO mice; for Effect on serum bile acid levels: oral dosing at the indicated doses, FIGS. 1 to 4, n=4. An excerpt:
Effect of LBAT Selective Compounds on Serum Bile Acid Levels in OATP KO Mice
Male OATP KO mice (Oatp1a/1b cluster knockout mice, Taconic, USA) aged 8 to 9 weeks were used in the studies. After completion of quarantine and acclimatization period, animals were randomized based on body weight into experimental groups (n=4 mice in each). On the experimental day, a baseline blood sample was collected followed by oral dosing of vehicle (0.5% CMC, 0.1% Tween 80) or compound of Example 3, 6, 13 or 15 at the indicated doses. Blood samples were then collected at various time points after dose (indicated in each graph). Blood was allowed to clot, and serum was collected by centrifugation at 3000 g, 4° C. for 15 minutes and stored at −80° C. for further analysis. The total bile acid concentration in each serum sample was determined by using the CELL BIOLABS Total Bile Acids kit (STA631) according to manufacturer's instructions. Mean±SEM, n=4.

A short description of data set [1]: Bidirectional permeability assay (Caco-2 cells). The data set is classed as in vitro ADME. The following applies: human, FaSSIF donor buffer, 120 minutes at 37° C.; for Papp A→B at 120 min, 10 µM: Caco-2, pH 7.4, absorptive direction (A2B); for Papp B→A at 120 min, 10 µM: Caco-2, pH 7.4, secretory direction (B2A). From the text: (§3) Bidirectional Permeability Assay (Caco-2 Cells)
(§4) HepaRG-Based Assay Protocol
A general note: Caco-2 cells form a polarised layer with tight junctions and transporters.

The test system of the next data set is Caco-2 cells. As to the kind of experiment: Bidirectional permeability assay (Caco-2 cells). Format: in vitro ADME. As to conditions: absorptive direction (A2B); FaSSIF donor buffer; 120 minutes at 37° C.
Description: as §3, §4

A word on the IC50: it is the concentration needed to halve the response being measured. In general, Papp A→B refers to the apparent permeability from the apical to the basolateral side of a cell layer. High values mean ready permeation, low ones poor permeation. A word on the Papp B→A: it is the apparent permeability from the basolateral to the apical side of a cell layer. As for `CCCCC1CN(c2ccccc2)c2cc(SCC)c(O/C=C(\F)C(=O)O)cc2S(=O)(=O)C1` (racemic) [Example 13, (Z)-3-((3-butyl-7-(ethylthio)-1,1-dioxido-5-phenyl-2,3,4,5-tetrahydro-1,5-benzothiazepin-8-yl)oxy)-2-fluoroacrylic acid], the half-maximal inhibitory concentration (IC50) on human IBAT came to 4890 nM; on human LBAT it was 2.8 nM. For the same compound, the “Serum bile acids level” value in the data set with OATP KO mice (30 mg/kg oral, within one hour after dosing, pre-dose/vehicle 1 to 5 μmol/L) was “about 100 μmol/L”. The “Effect on serum bile acid levels” value in the data set with OATP KO mice was “increased serum bile acids in a dose-dependent manner”. In data set [1], this compound yielded a Papp A→B at 120 min, 10 µM of 1.8 ×10⁻⁶ cm/s. Further, the Papp B→A at 120 min, 10 µM in data set [1] was determined as 6.9 ×10⁻⁶ cm/s.

On to `CCCCC1CN(c2ccc(F)cc2)c2cc(SC)c(O/C=C/C(=O)O)cc2S(=O)(=O)N1` (single isomer, unassigned) [Example 3, (E)-3-((3-butyl-5-(4-fluorophenyl)-7-(methylthio)-1,1-dioxido-2,3,4,5-tetrahydro-1,2,5-benzothiadiazepin-8-yl)oxy)acrylic acid], for which the half-inhibitory concentration (IC50) at human IBAT was 2020 nM. Besides, at human LBAT, the half-maximal inhibitory concentration (IC50) came out at 1.6 nM. Besides, the “Effect on serum bile acid levels” value in the data set on OATP KO mice is “increased serum bile acid levels”. In data set [1], the Papp A→B at 120 min, 10 µM was determined as 10.5 ×10⁻⁶ cm/s and the apparent permeability from basolateral to apical (Papp B→A) at 120 min, 10 µM is 17.1 ×10⁻⁶ cm/s.

Turning to `CCCCC1CN(c2ccccc2)c2cc(SCC)c(O/C=C/C(=O)O)cc2S(=O)(=O)N1` (single isomer, unassigned) [Example 6, (E)-3-((3-butyl-7-(ethylthio)-1,1-dioxido-5-phenyl-2,3,4,5-tetrahydro-1,2,5-benzothiadiazepin-8-yl)oxy)acrylic acid], the IC50 at human IBAT was more than 10000 nM; at human LBAT, 129 nM. Moreover, the “Effect on serum bile acid levels” value with OATP KO mice was “increased serum bile acid levels”.

For `CCCCC1CN(c2ccccc2)c2cc(SCC)c(O/C=C(\F)C(=O)O)cc2S(=O)(=O)C1` (single isomer, unassigned) [Example 15, (Z)-3-((3-butyl-7-(ethylthio)-1,1-dioxido-5-phenyl-2,3,4,5-tetrahydro-1,5-benzothiazepin-8-yl)oxy)-2-fluoroacrylic acid], the IC50 on human IBAT is more than 3330 nM; at human LBAT, 1.2 nM. Also, in the data set with OATP KO mice, the “Effect on serum bile acid levels” value is given as “increased serum bile acid levels”. Also, in data set [1], the Papp B→A at 120 min, 10 µM turned out to be 5.3 ×10⁻⁶ cm/s. Besides, in the data set with Caco-2 cells, the “Permeability (Caco-2) Papp A2B” value worked out at 1.3 ×10⁻⁶ cm/s.
